Source: PubChem BioAssay (NCI)
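In this assay, cells in 96-well plates receive the compound at five concentrations for 48 hours. Endpoints are linearly interpolated between the surrounding concentrations. At the TGI there is no net growth.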

Assays:
Test in all cases: NCI tumour cell line growth inhibition, 48 h
SK-MEL-2 melanoma = system: SK-MEL-2 melanoma
EKVX NSCLC = system: EKVX NSCLC
UO-31 renal = system: UO-31 renal
DLD-1 colon = system: DLD-1 colon
DMS 114 small cell lung = system: DMS 114 small cell lung
HOP-18 NSCLC = system: HOP-18 NSCLC
HCT-15 colon = system: HCT-15 colon
OVCAR-8 ovarian = system: OVCAR-8 ovarian
M19-MEL melanoma = system: M19-MEL melanoma
NCI-H460 lung = system: NCI-H460 lung
MOLT-4 leukemia = system: MOLT-4 leukemia
A549 NSCLC = system: A549 NSCLC
IGROV1 ovarian = system: IGROV1 ovarian
NCI-H522 lung = system: NCI-H522 lung
U251 CNS = system: U251 CNS
HCT-116 colon = system: HCT-116 colon
NCI-H226 lung = system: NCI-H226 lung
SK-OV-3 ovarian = system: SK-OV-3 ovarian
SNB-78 CNS = system: SNB-78 CNS
LXFL 529 NSCLC = system: LXFL 529 NSCLC
M14 melanoma = system: M14 melanoma
ACHN renal = system: ACHN renal
SF-539 CNS = system: SF-539 CNS
OVCAR-5 ovarian = system: OVCAR-5 ovarian
A498 renal = system: A498 renal
SK-MEL-28 melanoma = system: SK-MEL-28 melanoma
SW-620 colon = system: SW-620 colon
SF-295 CNS = system: SF-295 CNS
HT29 colon = system: HT29 colon
KM12 colon = system: KM12 colon
LOX IMVI melanoma = system: LOX IMVI melanoma
SNB-19 CNS = system: SNB-19 CNS
CAKI-1 renal = system: CAKI-1 renal
TK-10 renal = system: TK-10 renal
SK-MEL-5 melanoma = system: SK-MEL-5 melanoma
K-562 leukemia = system: K-562 leukemia
OVCAR-4 ovarian = system: OVCAR-4 ovarian
SN12C renal = system: SN12C renal
SF-268 CNS = system: SF-268 CNS
SNB-75 CNS = system: SNB-75 CNS
HOP-92 NSCLC = system: HOP-92 NSCLC
KM20L2 colon = system: KM20L2 colon
DMS 273 small cell lung = system: DMS 273 small cell lung
OVCAR-3 ovarian = system: OVCAR-3 ovarian
MALME-3M melanoma = system: MALME-3M melanoma
CCRF-CEM leukemia = system: CCRF-CEM leukemia
RXF-631 renal = system: RXF-631 renal
HCC-2998 colon = system: HCC-2998 colon
UACC-257 melanoma = system: UACC-257 melanoma
HL-60(TB) leukemia = system: HL-60(TB) leukemia
786-0 renal = system: 786-0 renal
HOP-62 NSCLC = system: HOP-62 NSCLC
RPMI-8226 leukemia = system: RPMI-8226 leukemia
UACC-62 melanoma = system: UACC-62 melanoma
COLO 205 colon = system: COLO 205 colon
NCI-H23 lung = system: NCI-H23 lung
RXF 393 renal = system: RXF 393 renal
XF 498 CNS = system: XF 498 CNS

Measured: TGI

C/C(CN1C(=O)c2ccccc2C1=O)=N\NS(=O)(=O)c1ccccc1
not listed: RXF 393 renal | XF 498 CNS
> 100 µM: all other assays above

O=C(c1cc(=O)c2ccc(O)cc2o1)c1ccc(Cl)cc1Cl
> 65.9 µM: SF-295 CNS
> 64.4 µM: 786-0 renal
> 25.4 µM: SF-539 CNS
> 58.9 µM: OVCAR-3 ovarian
99.6 µM: NCI-H226 lung
99.3 µM: EKVX NSCLC
> 59 µM: NCI-H522 lung
> 54.1 µM: HCT-116 colon
> 35.5 µM: K-562 leukemia
> 73.3 µM: NCI-H23 lung
> 38.3 µM: COLO 205 colon
> 94.7 µM: MALME-3M melanoma
> 71.9 µM: UACC-257 melanoma
22.3 µM: MOLT-4 leukemia
> 31.6 µM: DMS 273 small cell lung
71.3 µM: M14 melanoma
72.1 µM: SN12C renal
58.8 µM: HCC-2998 colon
> 74.6 µM: SK-MEL-5 melanoma
98.4 µM: RXF 393 renal
39.6 µM: CCRF-CEM leukemia
> 54.6 µM: SW-620 colon
62.6 µM: XF 498 CNS
> 64 µM: DMS 114 small cell lung
> 59.1 µM: LOX IMVI melanoma
> 73.4 µM: HOP-92 NSCLC
> 72.7 µM: RPMI-8226 leukemia
> 90.1 µM: OVCAR-4 ovarian
> 82.2 µM: UO-31 renal
not listed: LXFL 529 NSCLC
> 100 µM: all other assays above

Nc1nnc2nc(CC(=O)/C=C/c3ccccc3)c(=O)[nH]n12
not listed: HOP-18 NSCLC
> 100 µM: all other assays above
